Measured values published in patent US20230270678A1, “PHARMACEUTICAL COMPOSITIONS FOR IMPROVED DELIVERY OF THERAPEUTIC LIPOPHILIC ACTIVES” (KARNAK TECHNOLOGIES, LLC, priority 2020, published 2023).

System: Pseudomonas aeruginosa
Assay: MIC (minimum inhibition concentration) against P. aeruginosa
Type: cell-based
Method: Compositions with clarithromycin were prepared by cold physical process. Powder clarithromycin compositions were dissolved in water to obtaining nanoemulsion. The control free clarithromycin was dissolved in 1% DMSO. Emulsion dried using lyophilization. Samples were tested in three independent experiments, with triplicate in each experiment. Particle size was measured using DLS. MIC data (minimum inhibition concentrations) of the formulated and free antibiotic were compared.

MIC: 0.0625%
Compound: CC[C@H]1OC(=O)[C@H](C)[C@@H](O[C@H]2C[C@@](C)(OC)[C@@H](O)[C@H](C)O2)[C@H](C)[C@@H](O[C@@H]2O[C@H](C)C[C@H](N(C)C)[C@H]2O)[C@](C)(OC)C[C@@H](C)C(=O)[C@H](C)[C@@H](O)[C@]1(C)O [Free clarithromycin, clarithromycin]
